According to paper PMC11727410, “Identification of Chemical Constituents from Leaves and Stems of Alpinia oxyphylla: Potential Antioxidant and Tyrosinase Inhibitory Properties” (Antioxidants, 2024):

Tests used:
[1] = DPPH radical scavenging activity assay; settings: for Inhibitory rate (%), DPPH (Table S4): Table S4, concentration not given; for DPPH Inhibitory Rate (%): concentration 200 μM; for IC50: converted from μg/mL
Experimental: The DPPH radical scavenging capacity was measured according to the following reference at room temperature (25 °C). Briefly, 320 μL sample in DMSO with different concentrations (400, 200, 100, 50, 25, 12.5 μM) was reacted with 320 μL DPPH reagent (0.1 mM) in 1.5 mL centrifuge tube away from light for 30 min. Next, 200 μL of the mixture was transferred into a 96-well plate, which was used for measuring the absorbance at 517 nm (ODsample). A control (ODcontrol) and blank (ODblank) were, respectively, established from the mixture solutions of the sample in DMSO and ethanol and the mixture solution of DMSO and DPPH reagent. Vitamin C was the positive control, with the same concentration as the compounds. The DPPH radical scavenging capacity was calculated according to the following:DPPH radical scavenging capacity (%) = [1 − (ODsample − ODcontrol)/ODblank] × 100%

[2] = ABTS radical scavenging activity assay; settings: for Inhibitory rate (%), ABTS (Table S4): Table S4, concentration not given; for ABTS Inhibitory Rate (%): concentration 200 μM, "-" not active; for IC50: converted from μg/mL
Experimental: The ABTS radical scavenging activity was examined as previously reported at room temperature (25 °C). Briefly, 160 μL sample in DMSO with different concentrations (800, 400, 200, 100, 50, 25 μM) was reacted with 480 μL ABTS reagent in a 1.5 mL centrifuge tube away from light for 6 min. Next, 200 μL of the mixture was taken out and transferred into a 96-well plate, which was used for measuring the absorbance by a microplate reader at 734 nm (ODsample). The control (ODcontrol) and blank (ODblank) were, respectively, established from the mixture solutions of the sample in DMSO and water and the mixture solution of DMSO and ABTS reagent. Trolox was the positive control, with the same concentration with compounds. The ABTS radical scavenging capacity was calculated as following:ABTS radical scavenging capacity (%) = [1 − (ODsample − ODcontrol)/ODblank] × 100%

[3] = ABTS radical scavenging activity assay; settings: concentration 100 μg/mL
[4] = test system: B16 cells; assay: Measurement of melanin produced by B16 cells; format: cell-based; settings: 150 μM, compared with positive control kojic acid; concentration dependent
Experimental: (§1) B16 melanoma cells (PNS-MC-36) were purchased from Procell Life Science & Technology Co., Ltd. (Wuhan, China).
B16 cells were seeded into 96-well plates with […], and incubated at 37 °C, 5% CO2, and 90% humidity for 24 h. Having removed the supernatant, 100 μL samples with different concentrations were added. Medium without the sample was added as the blank. After incubation for another 72 h, the cells were dissolved in 100 μL of 2 N NaOH, and then incubated at 80 °C. The absorbance (OD) was measured at 450 nm.

[5] = test system: B16 cells; assay: MTT assay for cell viability; format: cell-based; settings: under the selected concentrations
Experimental: as §1
A modified MTT method was applied to screen cell viability. B16 cells were cultured in 96-well plates and mixed with different concentrations of the sample after 24 h. After having been incubated for another 72 h, MTT solution was added to form formazan, which was followed by dissolved in 100 μL DMSO, and then the absorbance (OD) was measured at 490 nm. Cell viability was calculated as percent changes relative to control.

[6] = DPPH radical scavenging activity assay; settings: concentration 100 μg/mL

## COc1cc(CC/C=C/C(=O)CCc2ccc(O)c(OC)c2)ccc1O [Compound 8, gingerenone A]
[1]
  Inhibitory rate (%), DPPH (Table S4): 52.84 ± 2.47%
  DPPH Inhibitory Rate (%): 52.84 ± 2.47 %
[2]
  ABTS IC50 ± SD: 36.06 ± 1.07 µg/mL
  Inhibitory rate (%), ABTS (Table S4): 90.81 ± 0.24%
  ABTS Inhibitory Rate (%): 90.81 ± 0.24 %

## COC(=O)[C@H]1O[C@@H](Oc2c(-c3ccc(O)cc3)oc3cc(O)cc(O)c3c2=O)[C@H](O[C@@H]2O[C@@H](C)[C@H](O)[C@@H](O)[C@H]2O)[C@@H](O)[C@@H]1O [Compound 9, kaempferol 3-O-α-L-rhamnosyl-(1 → 2)-(β-D-glucuronatemethyl ester)]
[1]
  Inhibitory rate (%), DPPH (Table S4): 43.07 ± 3.99%
  DPPH Inhibitory Rate (%): 43.07 ± 3.99 %
[2]
  ABTS IC50 ± SD: 6.20 ± 0.05 µg/mL
  Inhibitory rate (%), ABTS (Table S4): 92.39 ± 0.27%
  ABTS Inhibitory Rate (%): 92.39 ± 0.27%

## COc1cc(CCC(=O)CCCCc2ccccc2)ccc1O [Compound 6, yakuchinone A]
[1]
  Inhibitory rate (%), DPPH (Table S4): 18.77 ± 1.28%
  DPPH Inhibitory Rate (%): 18.77 ± 1.28 %
[2]
  Inhibitory rate (%), ABTS (Table S4): 4.42 ± 0.12%
  ABTS Inhibitory Rate (%): 4.42 ± 0.12 %

## O=C1C[C@@H](c2ccccc2)Oc2cc(O)cc(O)c21 [Compound 14, pinocembrin]
[1]
  Inhibitory rate (%), DPPH (Table S4): 27.53 ± 1.96%
  DPPH Inhibitory Rate (%): 27.53 ± 1.96 %
[2]
  ABTS IC50 ± SD: 27.73 ± 0.69 µg/mL
  Inhibitory rate (%), ABTS (Table S4): 78.11 ± 0.32%
  ABTS Inhibitory Rate (%): 78.11 ± 0.32 %

## Cc1c(C)c2c(c(C)c1O)CCC(C)(C(=O)O)O2 (stereo not shown) [trolox, Trolox, reference compound]
[2]
  ABTS IC50 ± SD: 31.61 ± 0.60 µg/mL
  Inhibitory rate (%), ABTS (Table S4): 92.69 ± 0.03%
  ABTS Inhibitory Rate (%): 92.69 ± 0.03%
[3]
  ABTS free radical scavenging rate: 91.6%

## COc1ccc(-c2oc3cc(OC)cc(O)c3c(=O)c2O)cc1 [Compound 12, 3,5-dihydroxy-4′,7-dimethoxyflavone]
[1]
  DPPH IC50 ± SD: 23.15 ± 3.24 µg/mL
  Inhibitory rate (%), DPPH (Table S4): 79.80 ± 2.02%
  DPPH Inhibitory Rate (%): 79.80 ± 2.02 %
[2]
  ABTS IC50 ± SD: 8.55 ± 0.08 µg/mL
  Inhibitory rate (%), ABTS (Table S4): 75.07 ± 0.46%
  ABTS Inhibitory Rate (%): 75.07 ± 0.46 %

## COc1cc(O)ccc1O[C@@H]1O[C@H](CO)[C@@H](O)[C@H](O)[C@H]1O [Compound 20, 1,4-dihydroxyl-3-methoxyphenyl-4-O-β-D-glucopyranoside]
[1]
  DPPH IC50 ± SD: 23.21 ± 2.88 µg/mL
  Inhibitory rate (%), DPPH (Table S4): 84.06 ± 1.79%
  DPPH Inhibitory Rate (%): 84.06 ± 1.79%
  IC50: 77 µM
[2]
  ABTS IC50 ± SD: 8.20 ± 0.14 µg/mL
  Inhibitory rate (%), ABTS (Table S4): 92.80 ± 0.31%
  ABTS Inhibitory Rate (%): 92.80 ± 0.31%
  IC50: 27.2 µM

## COC(=O)C1OC(Oc2c(-c3ccc(O)cc3)oc3cc(O)cc(O)c3c2=O)C(OC2OC(C)C(O)C(O)C2O)C(OC(C)=O)C1OC(C)=O [Compound 2, Kaempferol 3-O-α-L-rhamnosyl-(1 → 2)-(3″,4″-diacetyl-β-D-glucuronatemethyl ester)]
[1]
  Inhibitory rate (%), DPPH (Table S4): 22.77 ± 1.85%
  DPPH Inhibitory Rate (%): 22.77 ± 1.85 %
[2]
  ABTS IC50 ± SD: 6.42 ± 0.12 µg/mL
  Inhibitory rate (%), ABTS (Table S4): 93.04 ± 0.10%
  ABTS Inhibitory Rate (%): 93.04 ± 0.10%
[4]
  Melanin production inhibition activity in B16 cells: stronger inhibitory effects than positive control (kojic acid)
[5]
  Toxicity to B16 cells: no toxicity

## OC[C@H]1O[C@@H](Oc2ccccc2O)[C@H](O)[C@@H](O)[C@@H]1O [Compound 21, pyrocatechol 1-O-β-D-glucopyranoside]
[1]
  DPPH IC50 ± SD: ≥ 200 µg/mL
  Inhibitory rate (%), DPPH (Table S4): 31.39 ± 3.99%
  DPPH Inhibitory Rate (%): 31.39 ± 3.99 %
[2]
  ABTS IC50 ± SD: 46.03 ± 0.27 µg/mL
  Inhibitory rate (%), ABTS (Table S4): 92.57 ± 0.27%
  ABTS Inhibitory Rate (%): 92.57 ± 0.27%
  IC50: 169 µM

## COc1cc(O)c2c(=O)cc(-c3ccccc3)oc2c1 [Compound 13, tectochrysin]
[1]
  Inhibitory rate (%), DPPH (Table S4): 18.61 ± 0.62%
  DPPH Inhibitory Rate (%): 18.61 ± 0.62 %
[2]
  ABTS IC50 ± SD: 20.81 ± 0.29 µg/mL
  Inhibitory rate (%), ABTS (Table S4): 91.93 ± 1.68%
  ABTS Inhibitory Rate (%): 91.93 ± 1.68 %

## O=c1ccc2c3c(c(O)cc2o1)C[C@@H](O)[C@@H](c1ccc(O)c(O)c1)O3 [Compound 16, epiphyllocoumarin]
[1]
  DPPH IC50 ± SD: 7.29 ± 0.60 µg/mL
  Inhibitory rate (%), DPPH (Table S4): 76.93 ± 1.34%
  DPPH Inhibitory Rate (%): 76.93 ± 1.34 %
[2]
  ABTS IC50 ± SD: 8.49 ± 0.06 µg/mL
  Inhibitory rate (%), ABTS (Table S4): 92.51 ± 0.27%
  ABTS Inhibitory Rate (%): 92.51 ± 0.27%

## COc1cc(CC(O)C(O)CC2OC(CC(O)C(O)Cc3ccc(O)c(OC)c3)C3C(c4cc(OC)c(O)c(OC)c4)OC(c4cc(OC)c(O)c(OC)c4)C23)ccc1O (stereo not shown) [Compound 1, Aloxy A]
[1]
  Inhibitory rate (%), DPPH (Table S4): 50.74 ± 2.31%
  DPPH Inhibitory Rate (%): 50.74 ± 2.31 %
[2]
  ABTS IC50 ± SD: 39.59 ± 0.53 µg/mL
  Inhibitory rate (%), ABTS (Table S4): 91.09 ± 0.55%
  ABTS Inhibitory Rate (%): 91.09 ± 0.55 %
[4]
  Melanin production inhibition activity in B16 cells: stronger inhibitory effects than positive control (kojic acid)
[5]
  Toxicity to B16 cells: no toxicity

## O=C1O[C@H]([C@@H](O)CO)C(O)=C1O [Vitamin C, reference compound]
[1]
  DPPH IC50 ± SD: 6.20 ± 0.41 µg/mL
  Inhibitory rate (%), DPPH (Table S4): 85.44 ± 0.34%
  DPPH Inhibitory Rate (%): 85.44 ± 0.34%
[6]
  DPPH free radical scavenging rate: 72.7%

## COc1ccc([C@H]2OC[C@H]3[C@@H]2CO[C@@H]3c2ccc(OC)c(O[C@@H]3O[C@H](CO)[C@@H](O)[C@H](O)[C@H]3O)c2)cc1O [Compound 22, 4,4′-dimethoxy-3′-hydroxy-7,9′:7′,9-diepoxylignan-3-O-β-D-glucopyranoside]
[1]
  Inhibitory rate (%), DPPH (Table S4): 36.91 ± 2.04%
  DPPH Inhibitory Rate (%): 36.91 ± 2.04 %
[2]
  ABTS IC50 ± SD: 33.32 ± 0.29 µg/mL
  Inhibitory rate (%), ABTS (Table S4): 91.51 ± 0.21%
  ABTS Inhibitory Rate (%): 91.51 ± 0.21 %

## COc1cc(CCC(=O)CC(O)CCc2ccc(O)c(OC)c2)ccc1O (stereo not shown) [Compound 7, hexahydrocurcumin]
[1]
  Inhibitory rate (%), DPPH (Table S4): 35.80 ± 0.77%
  DPPH Inhibitory Rate (%): 35.80 ± 0.77 %
[2]
  ABTS IC50 ± SD: 13.17 ± 0.18 µg/mL
  Inhibitory rate (%), ABTS (Table S4): 91.09 ± 0.41%
  ABTS Inhibitory Rate (%): 91.09 ± 0.41 %
[4]
  Melanin production inhibition activity in B16 cells: stronger inhibitory effects than positive control (kojic acid)
[5]
  Toxicity to B16 cells: no toxicity

## COc1cc(O)cc(OC)c1O[C@@H]1O[C@H](CO)[C@@H](O)[C@H](O)[C@H]1O [Compound 19, 4-hydroxy-2,6-dimethoxyphenyl-β-D-glucoside]
[1]
  DPPH IC50 ± SD: 114.44 ± 0.14 µg/mL
  Inhibitory rate (%), DPPH (Table S4): 60.59 ± 0.17%
  DPPH Inhibitory Rate (%): 60.59 ± 0.17 %
  IC50: 345 µM
[2]
  ABTS IC50 ± SD: 17.50 ± 0.23 µg/mL
  Inhibitory rate (%), ABTS (Table S4): 92.57 ± 0.10%
  ABTS Inhibitory Rate (%): 92.57 ± 0.10%
  IC50: 52.9 µM

## O=c1ccc2c(O)cc3c(c2o1)C[C@@H](O)[C@@H](c1ccc(O)c(O)c1)O3 [Compound 15, isoepiphyllocoumarin]
[1]
  Inhibitory rate (%), DPPH (Table S4): 36.54 ± 3.60%
  DPPH Inhibitory Rate (%): 36.54 ± 3.60 %
[2]
  ABTS IC50 ± SD: 30.57 ± 0.93 µg/mL
  Inhibitory rate (%), ABTS (Table S4): 71.48 ± 0.32%
  ABTS Inhibitory Rate (%): 71.48 ± 0.32 %

## OC[C@H]1O[C@@H](OCc2ccccc2)[C@H](O)[C@@H](O)[C@@H]1O [Compound 17, benzyl O-β-D-glucopyranoside]
[1]
  Inhibitory rate (%), DPPH (Table S4): 25.74 ± 1.49%
  DPPH Inhibitory Rate (%): 25.74 ± 1.49 %
